Our source for the EC50 values is patent publication US12344610B2, “APOL1 inhibitors and methods of use” (Maze Therapeutics, Inc., priority 2022, dated 2025).

Like-named read-outs stand apart in the source and are kept apart here.

The test system of test [1] is HEK293 clonal cell line overexpressing APOL1 G1. Description: APOL1 G1 HEK293 cell rescue assay (Example B3). Format: cell-based. Particulars: geometric mean of at least 2 runs, † = single run, ¥ = concentration at 50% rescue estimated (no sigmoidal curve). Put shortly:
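Rescue of cell death caused by APOL1 G1 overexpression was measured in a clonal HEK293 line. Compounds were tested in duplicate on one plate, and EC50s were geometric means across at least two runs on different days. Some values are estimated 50%-rescue concentrations where curve fitting failed.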

Test [2] concerns Trypanosoma brucei Lister 427 VSG221 with APOL1 G0 recombinant protein. Description: APOL1 G0 trypanosome cell rescue assay (Example B5). In kind it is cell-based. Particulars: geometric mean of at least 2 assay runs, † = single assay run. Put shortly: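 Viability read by CellTiter-Glo luminescence after 20 h co-incubation (37° C, 5% CO2) of 250 trypanosomes/well in modified HMI-9 with test compound (duplicate 11-point, 2-fold dilutions, 0.4% DMSO) and APOL1 protein, […]. Protein: mature residues 28-398, E. coli inclusion-body refolded, tag cleaved, in DDM.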

Setting [3] is: Homo sapiens, HEK293, HEK293 clonal line overexpressing APOL1 G1.
The mark [4] stands for this setting: Trypanosoma brucei, 20 h, read-out: APOL1 G0 Trypanosome Rescue EC50, Trypanosoma brucei Lister 427 VSG221 with APOL1 G0 recombinant protein, 20 hours, CellTiter-Glo.
Setting [5] is: HEK293 clonal line overexpressing APOL1 G1.
Where [6] appears, read: read-out: APOL1 G0 Trypanosome Rescue EC50, Trypanosoma brucei Lister 427 VSG221 with APOL1 G0 recombinant protein, 20 hours, CellTiter-Glo.

One may read the EC50 as the concentration at which the effect is half-maximal. Regarding `CC1(S(=O)(=O)c2ccc(OCCN3CCC4(CC3)C(=O)Nc3ccc(Cl)cc34)cc2)COC1` [Compound 92, 5-chloro-1′-(2-{4-[(3-methyloxetan-3-yl)sulfonyl]phenoxy}ethyl)-1,2-dihydrospiro[indole-3,4′-piperidin]-2-one], the EC50 in test [1] (setting [3]) was 101 nM; in test [2] (setting [4]), 84.4 nM.
`CS(=O)(=O)C1(c2ccc(OCCN3CCC4(CC3)C(=O)Nc3ccc(Cl)cc34)cc2)CC(O)C1` (stereo not drawn) [Compound 270, 5-chloro-1′-(2-{4-[(trans) or (cis)-3-hydroxy-1-methanesulfonylcyclobutyl]phenoxy}ethyl)-1,2-dihydrospiro[indole-3,4′-piperidin]-2-one]: the EC50 in test [1] (setting [5]) is 60.7 nM; in test [2] (setting [6]), 72.5 nM.
For `CC(c1ncc(OCCN2CCC3(CC2)C(=O)Nc2ccc(Cl)cc23)cn1)S(C)(=O)=O` (single isomer, unassigned) [Compound 2, 5-chloro-1′-[2-({2-[(1S) or (1R)-1-methanesulfonylethyl]pyrimidin-5-yl}oxy)ethyl]-1,2-dihydrospiro[indole-3,4′-piperidin]-2-one], the EC50 in test [1] (setting [3]) was 346 nM; in test [2] (setting [4]), 192 nM.
The matching figures for `CS(=O)(=O)C1(c2ncc(OCCN3CCC4(CC3)C(=O)Nc3ccc(C(F)F)cc34)cn2)CC1` [Compound 5, 5-(difluoromethyl)-1′-(2-{[2-(1-methanesulfonylcyclopropyl)pyrimidin-5-yl]oxy}ethyl)-1,2-dihydrospiro[indole-3,4′-piperidin]-2-one]: 295 nM and 150 nM.
Turning to `CS(=O)(=O)c1c(F)cc(OCCN2CCC3(CC2)C(=O)Nc2ccc(C#N)cc23)cc1F` [Compound 90, 1′-[2-(3,5-difluoro-4-methanesulfonylphenoxy)ethyl]-2-oxo-1,2-dihydrospiro[indole-3,4′-piperidine]-5-carbonitrile], the EC50 in test [1] (setting [3]) is 594 nM; in test [2] (setting [4]), 546 nM.
As to `CC(c1ncc(OCCN2CCC3(CC2)C(=O)Nc2ccc(Cl)cc23)cn1)S(C)(=O)=O` (single isomer, unassigned) [Compound 3, 5-chloro-1′-[2-({2-[(1R) or (1S)-1-methanesulfonylethyl]pyrimidin-5-yl}oxy)ethyl]-1,2-dihydrospiro[indole-3,4′-piperidin]-2-one], the EC50 is 257 nM in test [1] (setting [5]) and 248 nM in test [2] (setting [6]).
For `CN1C(=O)CCc2cc(OCCN3CCC4(CC3)C(=O)Nc3ccc(C#N)cc34)ccc21` [Compound 95, 1′-{2-[(1-methyl-2-oxo-1,2,3,4-tetrahydroquinolin-6-yl)oxy]ethyl}-2-oxo-1,2-dihydrospiro[indole-3,4′-piperidine]-5-carbonitrile], the EC50 in test [1] (setting [3]) is 457 nM; in test [2] (setting [4]), 592 nM.
Take `CC(C)N1C(=O)CCc2cc(OCCN3CCC4(CC3)C(=O)Nc3ccc(Cl)cc34)ccc21` [Compound 97, 5-chloro-1′-(2-{[2-oxo-1-(propan-2-yl)-1,2,3,4-tetrahydroquinolin-6-yl]oxy}ethyl)-1,2-dihydrospiro[indole-3,4′-piperidin]-2-one]: the EC50 in test [1] (setting [3]) is 143 nM; in test [2] (setting [4]), 99 nM.
